Assay results taken from patent US20220274945A1, “SUBSTITUTED THIOPHENE CARBOXAMIDES AND DERIVATIVES THEREOF AS MICROBICIDES” (Bayer Aktiengesellschaft, priority 2019, published 2022).

Tested on: Botrytis cinerea
Test: Botrytis cinerea in vitro cell test
Assay type: cell-based
Details: 120 h, 20 ppm of active ingredient, liquid culture, 5 days incubation, read-out: efficacy (inhibition of fungal growth)
Experimental: • Solvent: DMSO • Culture medium: 14.6 g anhydrous D-glucose (VWR), 7.1 g Mycological Peptone (Oxoid), 1.4 g granulated Yeast Extract (Merck), QSP Iliter • Inoculum: spore suspension
Fungicides were solubilized in DMSO and the solution used to prepare the required range of concentrations. The final concentration of DMSO used in the assay was ≤[…]1%.
A spore suspension of B. cinerea was prepared and diluted to the desired spore density.
Fungicides were evaluated for their ability to inhibit spore germination and mycelium growth in liquid culture assay. The compounds were added in the desired concentration to the culture medium with spores. After 5 days incubation, fungi-toxicity of compounds was determined by spectrometric measurement of mycelium growth. Inhibition of fungal growth was determined by comparing the absorbance values in wells containing the fungicides with the absorbance in control wells without fungicides.

Structure (SMILES) | inhibition at 20 ppm
CCOC(=O)C1(NC(=O)c2sc(Br)c(Br)c2F)CC1 [I.01, ethyl 1-{[(4,5-dibromo-3-fluoro-2-thienyl)carbonyl]amino}cyclopropanecarboxylate] | ≤ 30%
CCOC(=O)C1(NC(=O)c2sc(Cl)c(Cl)c2Br)CC1 [I.03, Ethyl 1-{[(3-bromo-4,5-dichloro-2-thienyl)carbonyl]amino}cyclopropanecarboxylate] | ≤ 30%
O=C(NC1(C(=O)O)CC1)c1sc(Cl)c(Cl)c1Br [I.15, 1-{[(3-bromo-4,5-dichloro-2-thienyl)carbonyl]amino}cyclopropanecarboxylic Acid] | ≤ 30%

Tested on: Pseudomonas syringae pv. tomato
Test: Pseudomonas syringae pv. tomato in vitro cell test
Assay type: cell-based
Details: 20 ppm of active ingredient, liquid culture, 24 h incubation, read-out: efficacy (inhibition of bacteria growth)
Experimental: (§1) • Solvent: DMSO • Culture medium: LB broth medium (Luria Broth Miller) Sigma • Inoculum: bacteria suspension Compounds to be tested were solubilized in DMSO and the solution used to prepare the required range of concentrations. The final concentration of DMSO used in the assay was ≤1%. Inoculum was prepared from a pre-culture of bacteria grown in liquid medium and diluted to the desired optical density (OD). Compounds were evaluated for their ability to inhibit bacteria growth in liquid culture assay. The compounds were added in the desired concentrations to culture medium containing the bacteria suspension. After 24 h of incubation, the efficacy of compounds was determined by spectrometric measurement of bacteria growth. Inhibition was determined by comparing the absorbance values in wells containing the compounds with the absorbance in control wells without compounds.

Structure (SMILES) | inhibition at 20 ppm
CCOC(=O)C1(NC(=O)c2sc(Br)c(Br)c2F)CC1 [I.01, ethyl 1-{[(4,5-dibromo-3-fluoro-2-thienyl)carbonyl]amino}cyclopropanecarboxylate] | ≤ 30%
CCOC(=O)C1(NC(=O)c2sc(Cl)c(Cl)c2Br)CC1 [I.03, Ethyl 1-{[(3-bromo-4,5-dichloro-2-thienyl)carbonyl]amino}cyclopropanecarboxylate] | ≤ 30%
O=C(NC1(C(=O)O)CC1)c1sc(Cl)c(Cl)c1Br [I.15, 1-{[(3-bromo-4,5-dichloro-2-thienyl)carbonyl]amino}cyclopropanecarboxylic Acid] | ≤ 30%

Tested on: not listed separately
Test: Log P by HPLC on reversed phase columns (EEC directive 79/831 Annex V.A8)
Assay type: physicochemical
Details: not given
Experimental: In the above tables, measurement of Log P values was performed according to EEC directive 79/831 Annex V.A8 by HPLC (High Performance Liquid Chromatography) on reversed phase columns with the following methods: [^a] […] If more than one Log P value is available within the same method, all the values are given and separated by “+”. Calibration was done with straight-chain alkan2-ones (with 3 to 16 carbon atoms) with known Log P values (measurement of Log P values using retention times with linear interpolation between successive alkanones). Lambda-max-values were determined using UV-spectra from 200 nm to 400 nm and the peak values of the chromatographic signals.

Structure (SMILES) | LogP
O=C(NC1(C(=O)O)CC1)c1sc(Br)c(Br)c1F [I.02] | 2.19^[a]
CCOC(=O)C1(NC(=O)c2sc(Cl)c(Cl)c2I)CC1 [I.04] | 3.39^[a]
O=C(NC1(C(=O)OCc2ccccc2)CC1)c1sc(Br)c(Br)c1F [I.17] | 3.94^[a]
O=C(NC1(C(=O)OC2CCCC2)CC1)c1sc(Br)c(Br)c1F [I.18] | 3.99^[a]
CC(C)(C)OC(=O)C1(NC(=O)c2sc(Br)c(Br)c2F)CC1 [I.19] | 3.91^[a]
CC(C)COC(=O)C1(NC(=O)c2sc(Br)c(Br)c2F)CC1 [I.20] | 3.92^[a]
CCCCOC(=O)C1(NC(=O)c2sc(Br)c(Br)c2F)CC1 [I.21] | 3.96^[a]
CC(C)OC(=O)C1(NC(=O)c2sc(Br)c(Br)c2F)CC1 [I.22] | 3.52^[a]
C=CCOC(=O)C1(NC(=O)c2sc(Br)c(Br)c2F)CC1 [I.24] | 3.33^[a]
O=C(NC1(C(=O)OCc2ccccc2)CC1)c1sc(Cl)c(Cl)c1Br [I.25] | 4.28^[a]
O=C(NC1(C(=O)OC2CCCC2)CC1)c1sc(Cl)c(Cl)c1Br [I.26] | 4.37^[a]
CC(C)COC(=O)C1(NC(=O)c2sc(Cl)c(Cl)c2Br)CC1 [I.28] | 4.31^[a]
CCCCOC(=O)C1(NC(=O)c2sc(Cl)c(Cl)c2Br)CC1 [I.29] | 4.34^[a]
O=C(NC1(C(=O)OC2CCC2)CC1)c1sc(Cl)c(Cl)c1Br [I.30] | 4.07^[a]
CCCOC(=O)C1(NC(=O)c2sc(Cl)c(Cl)c2Br)CC1 [I.31] | 3.89^[a]
CC(C)OC(=O)C1(NC(=O)c2sc(Cl)c(Cl)c2Br)CC1 [I.32] | 3.86^[a]
C#CCOC(=O)C1(NC(=O)c2sc(Cl)c(Cl)c2Br)CC1 [I.33] | 3.35^[a]
C=CCOC(=O)C1(NC(=O)c2sc(Cl)c(Cl)c2Br)CC1 [I.34] | 3.66^[a]
O=C(NC1(C(=O)OC2CCC2)CC1)c1sc(Br)c(Br)c1I [I.35] | 3.99^[a]
O=C(NC1(C(=O)OC2CCC2)CC1)c1sc(Br)c(Br)c1F [I.36] | 3.71^[a]

Structure (SMILES) | LogP
CCCOC(=O)C1(NC(=O)c2sc(Br)c(Br)c2F)CC1 [I.37] | 3.54^[a]
O=C(NC1(C(=O)OC2CCC2)CC1)c1sc(Br)c(Br)c1Br [I.38] | 4.10^[a]
CCCOC(=O)C1(NC(=O)c2sc(Br)c(Br)c2Br)CC1 [I.39] | 3.92^[a]
CCCOC(=O)C1(NC(=O)c2sc(Br)c(Br)c2Cl)CC1 [I.40] | 3.91^[a]
CCCOC(=O)C1(NC(=O)c2sc(Br)c(Br)c2I)CC1 [I.41] | 3.85^[a]
O=C(NC1(C(=O)OC2CCC2)CC1)c1sc(Br)c(Br)c1Cl [I.42] | 4.17^[a]
CCOC(=O)C1(NC(=O)c2sc(Cl)c(Cl)c2F)CC1 [I.44] | 3.05^[a]
COC(=O)C1(NC(=O)c2sc(Cl)c(Cl)c2F)CC1 [I.45] | 2.65^[a]
O=C(NC1(C(=O)OCC2CC2)CC1)c1sc(Cl)c(Cl)c1Br [I.46] | 4.05^[a]
C#CCOC(=O)C1(NC(=O)c2sc(Br)c(Br)c2Br)CC1 [I.47] | 3.44^[a]
C=CCOC(=O)C1(NC(=O)c2sc(Br)c(Br)c2Br)CC1 [I.48] | 3.77^[a]
CC(C)(C)OC(=O)C1(NC(=O)c2sc(Br)c(Br)c2Br)CC1 [I.49] | 4.40^[a]
O=C(NC1(C(=O)OCc2ccccc2)CC1)c1sc(Br)c(Br)c1Br [I.50] | 4.37^[a]
C#CCOC(=O)C1(NC(=O)c2sc(Br)c(Br)c2I)CC1 [I.51] | 3.40^[a]
C=CCOC(=O)C1(NC(=O)c2sc(Br)c(Br)c2I)CC1 [I.52] | 3.71^[a]
O=C(NC1(C(=O)OC2CCCC2)CC1)c1sc(Br)c(Br)c1Br [I.55] | 4.47^[a]
CC(C)COC(=O)C1(NC(=O)c2sc(Br)c(Br)c2Br)CC1 [I.56] | 4.40^[a]
CCCCOC(=O)C1(NC(=O)c2sc(Br)c(Br)c2Br)CC1 [I.57] | 4.44^[a]
CC(C)OC(=O)C1(NC(=O)c2sc(Br)c(Br)c2Br)CC1 [I.58] | 3.98^[a]
O=C(NC1(C(=O)OC2CCCC2)CC1)c1sc(Br)c(Br)c1I [I.59] | 4.37^[a]

Structure (SMILES) | LogP
CC(C)OC(=O)C1(NC(=O)c2sc(Br)c(Br)c2I)CC1 [I.62] | 3.87^[a]
O=C(NC1(C(=O)OCC(F)(F)F)CC1)c1sc(Cl)c(Cl)c1Br [I.64] | 3.91^[a]
C[Si](C)(C)COC(=O)C1(NC(=O)c2sc(Cl)c(Cl)c2Br)CC1 [I.65] | 5.00^[a]
O=C(NC1(C(=O)Oc2ccccc2)CC1)c1sc(Cl)c(Cl)c1Br [I.66] | 4.19^[a]
O=C(NC1(C(=O)OCC2CC2)CC1)c1sc(Br)c(Br)c1Br [I.67] | 4.02^[a]
O=C(NC1(C(=O)OC2CCOCC2)CC1)c1sc(Br)c(Br)c1Br [I.68] | 3.26^[a]
C[Si](C)(C)COC(=O)C1(NC(=O)c2sc(Br)c(Br)c2Br)CC1 [I.69] | 4.97^[a]
O=C(NC1(C(=O)OC2CCOCC2)CC1)c1sc(Cl)c(Cl)c1Br [I.70] | 3.23^[a]
O=C(NC1(C(=O)OC2CSC2)CC1)c1sc(Cl)c(Cl)c1Br [I.71] | 3.87^[a]
N#CCOC(=O)C1(NC(=O)c2sc(Br)c(Br)c2Br)CC1 [I.72] | 3.16^[a]
O=C(NC1(C(=O)OCC(F)(F)F)CC1)c1sc(Br)c(Br)c1Br [I.74] | 3.94^[a]
O=C(NC1(C(=O)OC2CSC2)CC1)c1sc(Br)c(Br)c1Br [I.75] | 4.85^[a]
CCOC(=O)C1(NC(=O)c2sc(Br)cc2Cl)CC1 [IVb.01] | 2.84^[a]
CCOC(=O)C1(NC(=O)c2sc(Br)cc2I)CC1 [IVb.02] | 2.98^[a]
CCOC(=O)C1(NC(=O)c2sc(Br)cc2F)CC1 [IVb.03] | 2.46^[a]
CCOC(=O)C1(NC(=O)c2sc(Br)cc2Br)CC1 [IVb.05] | 2.92^[a]
CCOC(=O)C1(NC(=O)c2sccc2F)CC1 [IVc.01] | 1.65^[a]
CCOC(=O)C1(NC(=O)c2cc(Br)c(Br)s2)CC1 [V.01] | 2.90^[a]
CC(C)OC(=O)C1(NC(=O)c2cc(Br)c(Br)s2)CC1 [V.02] | 3.25^[a]
COC(=O)C1(NC(=O)c2cc(Cl)c(Cl)s2)CC1 [V.04] | 2.49^[a]

Same assay, conditions: reversed phase HPLC columns, method [a]: LC-UV, acidic range, 0.1% formic acid in water and acetonitrile as eluent

Structure (SMILES) | chromatographic logP
CCOC(=O)C1(NC(=O)c2sc(Br)c(Br)c2F)CC1 [I.01, ethyl 1-{[(4,5-dibromo-3-fluoro-2-thienyl)carbonyl]amino}cyclopropanecarboxylate] | 3.13
O=C(NC1(C(=O)O)CC1)c1sc(Cl)c(Cl)c1Br [I.15, 1-{[(3-bromo-4,5-dichloro-2-thienyl)carbonyl]amino}cyclopropanecarboxylic Acid] | 2.37
CCOC(=O)C1(NC(=O)c2scc(Br)c2F)CC1 [IVa.01, Ethyl 1-{[(4-bromo-3-fluoro-2-thienyl)carbonyl]amino}cyclopropanecarboxylate] | 2.37

Same assay, conditions: reversed phase HPLC columns, value in the preparation example; method letter not given

Structure (SMILES) | chromatographic logP
CCOC(=O)C1(NC(=O)c2sc(Br)c(Br)c2F)CC1 [I.01, ethyl 1-{[(4,5-dibromo-3-fluoro-2-thienyl)carbonyl]amino}cyclopropanecarboxylate] | 3.13
O=C(NC1(C(=O)O)CC1)c1sc(Cl)c(Cl)c1Br [I.15, 1-{[(3-bromo-4,5-dichloro-2-thienyl)carbonyl]amino}cyclopropanecarboxylic Acid] | 2.39
CCOC(=O)C1(NC(=O)c2scc(Br)c2F)CC1 [IVa.01, Ethyl 1-{[(4-bromo-3-fluoro-2-thienyl)carbonyl]amino}cyclopropanecarboxylate] | 2.39

Tested on: Xanthomonas campestris pv. campestris
Test: Xanthomonas campestris pv. campestris in vitro cell test
Assay type: cell-based
Details: 20 ppm of active ingredient, liquid culture, 24 h incubation, read-out: efficacy (inhibition of bacteria growth)
Experimental: as §1, with “Compounds” for “Compounds to be tested”, “10%.” for “≤1%.”, “active ingredients.” for “compounds.”

Structure (SMILES) | inhibition at 20 ppm
CCOC(=O)C1(NC(=O)c2sc(Br)c(Br)c2F)CC1 [I.01, ethyl 1-{[(4,5-dibromo-3-fluoro-2-thienyl)carbonyl]amino}cyclopropanecarboxylate] | ≤ 30%
CCOC(=O)C1(NC(=O)c2sc(Cl)c(Cl)c2Br)CC1 [I.03, Ethyl 1-{[(3-bromo-4,5-dichloro-2-thienyl)carbonyl]amino}cyclopropanecarboxylate] | ≤ 30%
O=C(NC1(C(=O)O)CC1)c1sc(Cl)c(Cl)c1Br [I.15, 1-{[(3-bromo-4,5-dichloro-2-thienyl)carbonyl]amino}cyclopropanecarboxylic Acid] | ≤ 30%
